Test results taken from patent publication US6207411A, “Bacteriocins” (priority 1995, dated 2001).

Columns and labels:
Catalase = experiment: Protease sensitivity assay (catalase); conditions: enzyme 50 mg/ml
Method: (§1) The following enzymes were dissolved in sterile distilled H2 O (SDW) to a final concentration of 50 mg/ml: Trypsin (type II, Sigma Chemical Co., Poole, Dorset, England), alpha-chymotrypsin (type II, Sigma), Proteinase K (Sigma), Pronase E (type XIV, Sigma), Catalase (Sigma). Pepsin was dissolved in 0.02N HCl, also to a final concentration of 50 mg/ml. All enzyme solutions were filter sterilised using disposable filters (Rotrand/Red rim 0.2 μm, Schleicher & Schuell). 20 μl aliquots of filtered cell-free bacteriocin solution and 20 μl of each enzyme solution were spotted 1 cm apart on GM17 agar plates and dried for 30 min. All plates were incubated overnight at 30° C. The plates move subsequently overlaid with the indicator organism. […] was evident as a zone of inhibition. Controls included plates with spots of either bacteriocin solution or enzyme solution.

L. lactis AM2 = experiment: Bacteriocin assayed directly in cheese samples; set-up: species or system Lactococcus lactis
Method: Bacteriocin activity was assayed from cheese samples as follows. Cheese samples were initially macerated in equal volumes of distilled water in a stomacher (Lab-Blender 400) for 15 min and heated to 80° C. for 10 min. Then aliquots of 50 μl were dispensed in wells and bacteriocin activity calculated as the difference in area of the zone of inhibition (in mm2) and the area of the well (as outlined previously).
Since then we have assayed the bacteriocin in these cheeses. In Cheese trial 1 the presence of lacticin 3147 in take test cheese was confirmed (using L. lactis AM2 as the indicator strain) at a level of approximately 1.280 AU/ml which remained constant in the cheese over the 28-week ripening period (FIG. 13A). In contrast, no anti-microbial activity was detected in the control cheese. Similarly, the amount of bacteriocin detected in cheese trial 2 was approximately 1.280 AU/ml which also remained constant over the ripening period (FIG. 13B). Thus the level of bacteriocin observed in the cheese corresponds to the number of NSLABs which occur in the cheese during ripening.

[1] = tested on: L. lactis subsp. lactis MG1614; experiment: Spontaneous resistance on media containing lacticin 3147; format: cell-based, Lactococcus lactis; conditions: MG1614 plated up to 10^8 -10^9 CFU/ml
Method: Plates containing bacteriocin were prepared as follows. A cell-free, sterile bacteriocin solution was obtained from an overnight culture of L. lactis DPC3147 grown in GM17 by first centrifuging at 8000 g (Sorvall RC-5B) for 10 min. The resulting supernatant was then sterilized by filtering with Millipore HVLP filters (0.45 um) and tempered to 45° C. An equal volume was then added to double strength GM17 and the plates were poured. Where needed, streptomycin was added to agar at a concentration of 500 μg/ml.
During initial genetic work with lacticin 3147, it was observed that the bacteriocin-producing property was an easily lost trait. Preliminary experiments were attempted to establish if bacteriocin production by DPC3147 was encoded on a conjugally transmissable piece of DNA. These conjugal matings involved using DPC3147 as the donor strain and the plasmid-free strain, L. lactis subsp. lactis MG1614, which is streptomycin resistant as the recipient. The selection of transconjugants from such matings was achieved using the plasmid-encoded bacteriocin immunity/resistance determinants as a selectable marker. This involved the incorporation of lacticin 3147 into the selective media. […] The incorporation of lacticin 3147 into selective media may thus form the basis for a novel food-grade marker system for use in genetic manipulation of lactococci. […]

[2] = tested on: Streptococcus dysgalactiae M; experiment: Effectiveness on Streptococcus dysgalactiae M (plate counts); format: cell-based; conditions: 10.240 AU/ml, stationary phase cells, 2 hours, 37° C.
Method: FIG. 14B. Effect of adding lacticin 3147 (10.240 AU/ml) to stationary cells of Streptococcus dysgalactiae.
10 μl from a overnight culture was added to 490 μl of sterile 50 mM phosphate-buffer. pH 7.0 500 μl lacticin 3147 (10,000 AU/ml) was then added and plate counts were carried out after 0, 15, 30, 60, 90 and 120 minutes at 37° C. to assess cell viability.

Pronase E = experiment: Protease sensitivity assay; conditions: enzyme 50 mg/ml spotted beside bacteriocin; indicator L. lactis HP
Method: (§2) FIGS. 2A, 2B, 2C, 2D, and 2E. Protease Sensitivity Assay. Filtered cell-free bacteriocin solution and enzyme solution (A represents control, no enzyme; B, alpha-chymotrypsin; C, trypsin; D, pronase E and E represents proteinase K) were spotted 1 cm apart on GM17 agar plates and subsequently overlaid with the indicator L. lactis strain HP.
as §1

Proteinase K = biological target: T1, Proteinase K (Parengyodontium album, UniProt P06873); experiment: Protease sensitivity assay; conditions: enzyme 50 mg/ml spotted beside bacteriocin; indicator L. lactis HP
T1 construct: purchased Sigma
Method: as §2, §1

Trypsin = biological target: T2, Trypsin (Sus scrofa, UniProt P00761); experiment: Protease sensitivity assay; conditions: enzyme 50 mg/ml spotted beside bacteriocin; indicator L. lactis HP
T2 construct: purchased Sigma Chemical Co., Poole, Dorset, England type II
Method: as §2, §1

alpha-chymotrypsin = biological target: T3, alpha-chymotrypsin (Bos taurus, UniProt P00766, DEL14-15/DEL147-148); experiment: Protease sensitivity assay; conditions: enzyme 50 mg/ml spotted beside bacteriocin; indicator L. lactis HP
T3 construct: purchased Sigma type II
Method: as §2, §1

[3] = tested on: four cariogenic streptococci; experiment: Sensitivity of oral streptococci; format: cell-based; conditions: four cariogenic strains from infected patients
Method: Four cariogenic streptococcal strains isolated from infected patients were grown overnight at 30° C. in Brain Heart Infusion broth. These strains were obtained from Dr. Ger Fitzgerald, University College Cork. The relative sensitivity of each of these strains to the bacteriocin was then determined in comparison to L. lactis HP.

Pepsin = experiment: Protease sensitivity assay; conditions: enzyme 50 mg/ml in 0.02N HCl
Method: as §1

[4] = format: physicochemical; conditions: pH 9, up to 100° C., 10 minutes; 100% = unheated at that pH
Method: FIG. 6. Effect of heating at 60° C. to 121° C. for 10 minutes on the stability of lacticin 3147 at pH5, pH7, pH9. 100% activity is the activity at pH 5, 7 and 9 with no heating.
A cell-free bacteriocin was exposed to various pH/temperature treatments. Samples were heated to 60, 70, 80, 90, 100, 110 and 121° C. at pH5, pH7 and pH9 for 10 min. Following treatment, all solutions were rapidly cooled and bacteriocin activity was assayed by the well diffusion method.
Three samples of bacteriocin were brought to a pH of 5, 7 and 9 and aliquots of each were subsequently heated to 60° C., 70° C., 80° C., 90° C., 100° C., 110° C. and 121° C. for 10 minutes. The activity at each pH prior to heat treatment was measured and was taken to be 100% for that pH value. From the graphical representation in FIG. 6, it can be seen that lacticin 3147 is heat-stable, particularly at an acid pH.

[5] = Bacteriocin activity in teat seals; conditions: teat seal without Tween 20 or 80 (2% required)
Method: FIG. 14A. Antimicrobial effectiveness of lacticin 3147 requires the presence of Tween Au/ml) has been added.
TY (Tryptone 2.5 g/L, Yeast Extract 5 g/L, Glucose 10 g/L, b-glycerophosphate 19 g/L, MgSO4.7H2O 0.25 g/L, MnSO4.4H2O 0.05 g/L, pH 6.75) broth was prefiltered (15 filter/liter) with HA (Millipore) filters to remove proteins in the media which would bind to the filters. L. lactis DPC 3147 was then grown overnight in the filtered TY-broth. The culture was centrifuged at 10,000 rpm for 15 minutes and then filtered through HVLP filters (Millipore). The bacteriocin was then bound to HA filters (8 filters/liter) and subsequently harvested from the filters using acetone/5 mM Phosphate-Buffer, pH 7.0 (2:1). The mix was subsequently centrifuged and the acetone removed by evaporation. The resultant bacteriocin preparation was freeze-dried and dissolved in sterile distilled water. This was then assayed as above. To add bacteriocin into the teat seal 17,000 units of the bacteriocin prepared as above was added to the seal in a sterile petri disc. On mixing, the bacteriocin and seal formed as emulsion which was then aseptically transferred to a syringe (Cross Vetpharm).

[6] = tested on: Streptococcus dysgalactiae M; experiment: Frequency of resistance development of a mastitic strain; format: cell-based; conditions: prolonged exposure
Description: As a result of the growing concern over the use of antibiotics for the treatment and prevention of disease in animals the potential of using lacticin 3147 in the prevention of bovine mastitis was investigated. To achieve this the bacteriocin was incorporated into teat seals preparations. These seals are manufactured by Cross Vetpharm (Broomhill Road, Tallaght, Dublin 24. Ireland) and act as a physical barrier in the cow against infection. The bacteriocin provides an additional anti-microbial barrier over the physical one provided by the seal itself. Incorporation of the bacteriocin into the teat seals first required the preparation of the bacteriocin in a highly concentrated and semi-purified form. The anti-microbial effectiveness of lacticin 3147 in the environment of the seal required the addition of either Tween 20 or 80 in concentrations of 2% (FIG. 14A). […] Having successfully prepared effective bacteriocin-containing teat seals a number of animal trials were then performed. These involved exposure of the modified seals to the animal for different time periods after which the seals were removed. […] Other aspects of this study focused on the frequency at which a mastitic strain can develop resistance to lacticin 3147 since this could limit its practical usefulness as an effective antimicrobial under certain conditions. […]

NCDO496 = experiment: MIC of pure nisin; format: cell-based, Lactococcus lactis; conditions: pure nisin against strain NCDO496
Description: (§3) As expected, catalase had no effect on the antimicrobial activity of the 3147 bacteriocin thus eliminating the possibility that the antimicrobial activity may be due to hydrogen peroxide. In addition, none of the strains producing lacticin 3147 were capable of fermenting sucrose. This provides additional evidence that this bacteriocin is not nisin, since the genes encoding nisin (nis A) is linked to genes responsible for sucrose catabolism on the nisin-sucrosetransposon. Tn5276 (Horn et. al., 1991). Thus, all those Nip^+ (nisin-producing) strains studied to date are in addition Suc^+ (Sucrose-fermenting).

DPC3147 = experiment: MIC of pure nisin; format: cell-based, Lactococcus lactis; conditions: pure nisin against strain DPC3147
Description: as §3

T1 sequence (P06873 106-384): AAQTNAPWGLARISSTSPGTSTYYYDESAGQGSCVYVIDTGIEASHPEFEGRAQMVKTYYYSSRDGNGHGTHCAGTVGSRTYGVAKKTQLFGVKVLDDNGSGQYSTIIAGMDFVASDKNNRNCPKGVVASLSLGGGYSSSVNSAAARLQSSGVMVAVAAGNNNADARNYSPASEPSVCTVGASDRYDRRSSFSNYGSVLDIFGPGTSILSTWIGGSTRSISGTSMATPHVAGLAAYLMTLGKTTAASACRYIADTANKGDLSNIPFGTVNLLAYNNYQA
T2 sequence (P00761 9-231): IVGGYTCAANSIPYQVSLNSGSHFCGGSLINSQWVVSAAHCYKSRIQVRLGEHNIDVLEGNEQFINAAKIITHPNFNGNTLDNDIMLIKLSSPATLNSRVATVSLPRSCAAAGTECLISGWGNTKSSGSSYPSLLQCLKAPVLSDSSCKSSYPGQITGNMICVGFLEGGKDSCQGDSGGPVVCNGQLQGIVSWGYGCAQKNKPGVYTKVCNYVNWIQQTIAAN

Substance	Effect of catalase on antimicrobial activity (Catalase)	Level of bacteriocin in cheese (L. lactis AM2; cheese trial 1, constant over the 28-week ripening period)	Level of bacteriocin in cheese (L. lactis AM2; cheese trial 2, constant over the ripening period)	Growth of sensitive cells on media containing lacticin 3147 [1]	Kill [2] [%]	Sensitivity to pronase E (Pronase E)	Sensitivity to proteinase K (Proteinase K)	Sensitivity to trypsin (Trypsin)	Sensitivity to alpha-chymotrypsin (alpha-chymotrypsin)	Sensitivity relative to L. lactis HP [3] [%]	Sensitivity to pepsin (Pepsin)	Activity maintained after heating [4]	Bacteriocin activity in treated seals [5]	Bacterial cells that developed increased tolerance [6] [%]	minimum concentrations (MIC) required for inhibition (NCDO496) [µg/mL]	minimum concentrations (MIC) required for inhibition (DPC3147) [µg/mL]
lacticin 3147	no effect	approximately 1.280 AU/ml	approximately 1.280 AU/ml	failed to grow	99.99	sensitive	sensitive	sensitive	sensitive	12.5	not to pepsin	more than 50%	negligible bacteriocin activity	0.003		
nisin															400	100
